Source: ChEMBL document CHEMBL4507284, “Data for DCP probe BI-1230” (2021)

How the values were obtained:
Conditions in all cases: Compound concentration 10.0 uM
[1] = target: Prothrombin (Homo sapiens) (UniProt P00734); assay: Thrombin(h) Eurofins-Cerep enzyme and uptake assay
[2] = target: Neutrophil elastase (Homo sapiens) (UniProt P08246); assay: Elastase (h) Eurofins-Cerep enzyme and uptake assay
[3] = target: Cathepsin D (Homo sapiens) (UniProt P07339); assay: Cathepsin D (h) Eurofins-Cerep enzyme and uptake assay
Chain of Cathepsin D (Homo sapiens) (P07339 65-162 limits assumed): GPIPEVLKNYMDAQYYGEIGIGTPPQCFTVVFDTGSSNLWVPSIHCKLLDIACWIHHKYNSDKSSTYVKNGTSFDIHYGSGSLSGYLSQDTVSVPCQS
Chain of Cathepsin D (Homo sapiens) (P07339 169-412 limits assumed): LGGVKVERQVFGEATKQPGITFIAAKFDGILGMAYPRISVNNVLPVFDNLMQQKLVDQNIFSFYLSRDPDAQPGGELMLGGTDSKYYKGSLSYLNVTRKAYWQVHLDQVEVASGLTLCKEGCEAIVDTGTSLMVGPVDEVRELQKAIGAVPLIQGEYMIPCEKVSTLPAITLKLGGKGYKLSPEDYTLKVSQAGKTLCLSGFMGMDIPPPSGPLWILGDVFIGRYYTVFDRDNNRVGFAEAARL

[4] = target: Procathepsin L (Homo sapiens) (UniProt P07711); assay: Cathepsin L (h) Eurofins-Cerep enzyme and uptake assay
Chain of Procathepsin L (Homo sapiens) (P07711 114-333 limits assumed): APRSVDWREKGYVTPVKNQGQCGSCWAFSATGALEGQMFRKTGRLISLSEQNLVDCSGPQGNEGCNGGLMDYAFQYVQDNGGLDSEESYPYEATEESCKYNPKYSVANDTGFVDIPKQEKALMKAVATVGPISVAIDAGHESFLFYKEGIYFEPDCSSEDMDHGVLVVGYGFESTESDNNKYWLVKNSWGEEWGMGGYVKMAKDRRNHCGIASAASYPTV

[5] = target: Cathepsin B (Homo sapiens) (UniProt P07858); assay: Cathepsin B (h) Eurofins-Cerep enzyme and uptake assay
[6] = target: Caspase-7 (Homo sapiens) (UniProt P55210); assay: Caspase-7 (h) Eurofins-Cerep enzyme and uptake assay
Chain of Caspase-7 (Homo sapiens) (P55210 24-198 limits assumed): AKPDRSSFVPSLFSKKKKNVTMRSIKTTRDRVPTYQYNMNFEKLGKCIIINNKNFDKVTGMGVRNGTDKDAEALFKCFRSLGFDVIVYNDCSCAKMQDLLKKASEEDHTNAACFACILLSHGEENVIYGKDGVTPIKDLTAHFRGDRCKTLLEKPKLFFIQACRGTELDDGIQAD
Chain of Caspase-7 (Homo sapiens) (P55210 207-303 limits assumed): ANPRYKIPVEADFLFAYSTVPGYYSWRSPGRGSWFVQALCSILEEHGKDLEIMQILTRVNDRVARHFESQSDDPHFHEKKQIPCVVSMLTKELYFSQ

[7] = target: Caspase-3 (Homo sapiens) (UniProt P42574); assay: Caspase-3 (h) Eurofins-Cerep enzyme and uptake assay
Chain of Caspase-3 (Homo sapiens) (P42574 29-175 limits assumed): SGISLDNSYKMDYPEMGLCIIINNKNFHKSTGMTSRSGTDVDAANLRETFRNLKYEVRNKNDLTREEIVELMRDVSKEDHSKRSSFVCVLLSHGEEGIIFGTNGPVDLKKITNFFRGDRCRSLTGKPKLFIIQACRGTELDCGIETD
Chain of Caspase-3 (Homo sapiens) (P42574 176-277 limits assumed): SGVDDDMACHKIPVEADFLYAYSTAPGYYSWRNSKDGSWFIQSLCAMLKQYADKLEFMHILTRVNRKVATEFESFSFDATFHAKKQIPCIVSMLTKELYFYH

[8] = target: Kappa-type opioid receptor (Homo sapiens) (UniProt P41145)
Chain of Kappa-type opioid receptor (Homo sapiens) (P41145 whole entry): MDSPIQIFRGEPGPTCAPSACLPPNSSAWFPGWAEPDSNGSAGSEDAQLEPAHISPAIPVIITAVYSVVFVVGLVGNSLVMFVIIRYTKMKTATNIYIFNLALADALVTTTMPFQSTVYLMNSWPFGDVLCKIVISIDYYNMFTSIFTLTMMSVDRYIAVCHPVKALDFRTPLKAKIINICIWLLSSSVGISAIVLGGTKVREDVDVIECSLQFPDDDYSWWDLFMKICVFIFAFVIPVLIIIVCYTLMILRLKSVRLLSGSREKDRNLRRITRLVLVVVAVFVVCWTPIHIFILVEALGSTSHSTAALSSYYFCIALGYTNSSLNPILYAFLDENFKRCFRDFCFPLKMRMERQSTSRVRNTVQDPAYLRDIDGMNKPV

[9] = target: Proteinase-activated receptor 1 (Homo sapiens) (UniProt P25116); assay: PAR1 (h) Eurofins-Cerep Cellular and Nuclear Receptor Functional Assays
Chain of Proteinase-activated receptor 1 (Homo sapiens) (P25116 whole entry): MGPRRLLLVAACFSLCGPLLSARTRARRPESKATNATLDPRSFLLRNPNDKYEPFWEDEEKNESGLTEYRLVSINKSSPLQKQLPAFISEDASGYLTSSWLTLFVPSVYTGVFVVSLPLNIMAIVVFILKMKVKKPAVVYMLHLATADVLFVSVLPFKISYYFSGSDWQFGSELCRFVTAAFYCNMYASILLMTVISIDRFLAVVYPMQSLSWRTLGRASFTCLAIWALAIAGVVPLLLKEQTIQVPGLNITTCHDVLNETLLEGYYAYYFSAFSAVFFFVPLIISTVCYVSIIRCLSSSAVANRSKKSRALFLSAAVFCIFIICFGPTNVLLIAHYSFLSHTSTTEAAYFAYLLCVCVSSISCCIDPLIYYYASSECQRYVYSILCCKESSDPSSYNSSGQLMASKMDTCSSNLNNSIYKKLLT

[10] = target: Caspase-10 (Homo sapiens) (UniProt Q92851); assay: Caspase-10 (h) Eurofins-Cerep enzyme and uptake assay
Chain of Caspase-10 (Homo sapiens) (Q92851 220-415 limits assumed): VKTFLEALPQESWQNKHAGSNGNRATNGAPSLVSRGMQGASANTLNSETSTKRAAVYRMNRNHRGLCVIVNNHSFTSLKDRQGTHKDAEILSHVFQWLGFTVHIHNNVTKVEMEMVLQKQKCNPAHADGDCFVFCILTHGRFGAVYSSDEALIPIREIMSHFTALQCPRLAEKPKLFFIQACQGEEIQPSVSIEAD
Chain of Caspase-10 (Homo sapiens) (Q92851 416-521 limits assumed): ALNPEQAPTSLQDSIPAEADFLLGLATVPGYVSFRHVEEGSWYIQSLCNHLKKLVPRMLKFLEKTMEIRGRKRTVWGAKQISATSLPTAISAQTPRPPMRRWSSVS

[11] = target: Caspase-2 (Homo sapiens) (UniProt P42575); assay: Caspase-2 (h) Eurofins-Cerep enzyme and uptake assay
Chain of Caspase-2 (Homo sapiens) (P42575 170-325 limits assumed): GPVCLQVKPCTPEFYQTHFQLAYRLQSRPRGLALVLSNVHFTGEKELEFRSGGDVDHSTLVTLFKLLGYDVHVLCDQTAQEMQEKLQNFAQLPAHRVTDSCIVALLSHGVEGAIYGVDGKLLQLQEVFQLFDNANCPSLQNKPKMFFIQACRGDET
Chain of Caspase-2 (Homo sapiens) (P42575 334-452 limits assumed): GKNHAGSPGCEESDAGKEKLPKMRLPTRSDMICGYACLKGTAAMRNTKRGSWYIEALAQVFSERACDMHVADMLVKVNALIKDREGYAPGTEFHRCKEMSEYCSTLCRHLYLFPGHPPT

[12] = target: GABA-A receptor; anion channel (Rattus norvegicus) (UniProt O09028+P15431+P18506+P18508+P19969+P20236+P23574+P23576+P28471+P28473+P30191+P62813+P63079+P63138+Q91ZM7+Q9ES14)

Chain of Neutrophil elastase (Homo sapiens) (P08246 whole entry): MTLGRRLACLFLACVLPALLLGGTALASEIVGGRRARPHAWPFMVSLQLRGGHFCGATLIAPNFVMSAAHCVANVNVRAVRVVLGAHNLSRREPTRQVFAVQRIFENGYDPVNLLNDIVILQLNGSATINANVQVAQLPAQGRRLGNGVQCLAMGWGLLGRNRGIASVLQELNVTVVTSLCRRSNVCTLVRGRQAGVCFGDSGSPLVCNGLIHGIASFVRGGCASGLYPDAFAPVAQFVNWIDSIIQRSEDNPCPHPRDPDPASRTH

Compound	% Inhibition of Control Values [1]	% Inhibition of Control Values [2]	% Inhibition of Control Values [3]	% Inhibition of Control Values [4]	% Inhibition of Control Values [5]	% Inhibition of Control Values [6]	% Inhibition of Control Values [7]	inhibition [8]	% Inhibition of Control Agonist Response [9]	% of Control Agonist Response [9]	% Inhibition of Control Values [10]	% Inhibition of Control Values [11]	inhibition [12]
COc1ccc2c(O[C@@H]3C[C@H]4C(=O)N[C@]5(C(=O)O)CC5/C=C\CCCCC[C@H](NC(=O)OC5CCCC5)C(=O)N4C3)cc(-c3csc(NC(=O)C(C)C)n3)nc2c1C (stereo partly drawn) [BI 1230]	3.5%	9.7%	-2.2%	13.6%	-1.7%	40.6%	23.8%	18.1%	59.6%	-0.9%	38.2%	44.5%	
O=C(N[C@H]1CCCCC/C=C\C2C[C@@]2(C(=O)O)NC(=O)[C@@H]2C[C@@H](Oc3ccncc3)CN2C1=O)OC1CCCC1 (stereo partly drawn) [BI 1675]													8.04%
